Where a name gives a salt, the structure may show the parent alone.

The target of this test is T1, Human Polθ polymerase domain (aa1820-2590) (Homo sapiens, UniProt O75417).
T1 construct: Human Polθ polymerase domain (aa1820-2590) was expressed in E. Coli; made in house; host or cells: E. coli
T1 sequence (O75417 1820-2590): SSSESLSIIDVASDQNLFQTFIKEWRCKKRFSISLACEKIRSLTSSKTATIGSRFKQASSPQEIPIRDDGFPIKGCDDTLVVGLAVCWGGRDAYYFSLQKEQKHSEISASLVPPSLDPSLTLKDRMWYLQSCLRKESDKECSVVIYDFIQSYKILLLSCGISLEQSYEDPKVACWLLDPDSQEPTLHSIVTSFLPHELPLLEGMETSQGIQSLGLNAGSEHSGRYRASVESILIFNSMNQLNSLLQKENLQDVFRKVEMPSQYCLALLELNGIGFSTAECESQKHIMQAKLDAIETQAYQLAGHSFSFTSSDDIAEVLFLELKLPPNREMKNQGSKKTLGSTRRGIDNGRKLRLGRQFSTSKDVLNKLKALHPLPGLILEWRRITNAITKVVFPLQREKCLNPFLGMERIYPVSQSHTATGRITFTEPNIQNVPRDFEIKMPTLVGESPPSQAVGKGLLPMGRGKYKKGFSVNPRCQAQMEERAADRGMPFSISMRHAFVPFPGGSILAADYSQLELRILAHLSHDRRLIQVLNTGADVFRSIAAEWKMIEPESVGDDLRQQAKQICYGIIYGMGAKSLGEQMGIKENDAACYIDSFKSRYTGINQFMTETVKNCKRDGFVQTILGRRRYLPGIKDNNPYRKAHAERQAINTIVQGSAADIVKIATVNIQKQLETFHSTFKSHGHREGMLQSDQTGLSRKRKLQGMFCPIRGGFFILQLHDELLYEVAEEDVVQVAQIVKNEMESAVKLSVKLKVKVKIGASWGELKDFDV
The experiment in a line: Polθ Polymerase Domain WT KI Assay (PicoGreen). In kind it is biochemical. The note with it: 100 nM DNA substrate, 0.156 nM Polθ, initial rates vs inhibitor concentration. In outline:
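E. coli-expressed human Polθ polymerase domain (aa1820-2590) on annealed DNA II Short/Long primer-template (1.2:1), in 25 mM Tris pH 7.5, NaCl, 5% glycerol, 0.01% Triton X-100, 0.1 mg/ml BSA, 1 mM DTT, 1% DMSO. EDTA-quenched timepoints to 180 min, PicoGreen fluorescence. Initial rates vs inhibitor concentration fitted four-parameter for KI.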

`Cc1cc(C(F)(F)F)cc(N2C(=O)CC3CN(C4CC(OCc5ccccc5)C4)c4c(F)cccc4N(C)C(=O)C32)n1` (single isomer, unassigned) [Example 92a] registered an inhibitory constant (Ki) of 9.06 nM. `Cc1cc(C(F)(F)F)cc(N2C(=O)C[C@@H]3CN(CCN4CCN(C)[C@H](C)C4)c4c(C)cccc4N(C)C(=O)[C@H]32)n1` [Example 47, (3aR,11aS)-5-(2-((R)-3,4-Dimethylpiperazin-1-yl)ethyl)-6,10-dimethyl-1-(6-methyl-4-(trifluoromethyl)pyridin-2-yl)-1,3a,4,5,10,11a-hexahydro-2H-benzo[b]pyrrolo[2,3-f][1,4]diazocine-2,11(3H)-dione dihydrochloride] showed a Ki of 0.605 nM.

For the molecule `COc1cc(N2C[C@H]3CC(=O)N(c4cc(C(F)(F)F)cc(C)n4)[C@@H]3C(=O)N(C)c3cccc(F)c32)ccn1` [Example 142, (3aR,11aS)-6-Fluoro-5-(2-methoxypyridin-4-yl)-10-methyl-1-(6-methyl-4-(trifluoromethyl)pyridin-2-yl)-1,3a,4,5,10,11a-hexahydro-2H-benzo[b]pyrrolo[2,3-f][1,4]diazocine-2,11(3H)-dione], the affinity corresponds to a Ki of 461 nM. Molecule `Cc1cc(C(F)(F)F)cc(N2C(=O)C[C@@H]3CN(CCCN4CCN(C)CC4)c4c(Cl)cccc4N(C)C(=O)[C@H]32)n1` [Example 129, (3aR,11aS)-6-Chloro-10-methyl-1-(6-methyl-4-(trifluoromethyl)pyridin-2-yl)-5-(3-(4-methylpiperazin-1-yl)propyl)-1,3a,4,5,10,11a-hexahydro-2H-benzo[b]pyrrolo[2,3-f][1,4]diazocine-2,11(3H)-dione] came in with a Ki of 1.23 nM.

`Cc1cc(C(F)(F)F)cc(N2C(=O)C[C@@H]3CN(CCN4CC[C@@H](C#N)C4)c4c(Cl)cccc4N(C)C(=O)[C@H]32)n1` [Example 40, (R)-1-(2-((3aR,11aS)-6-Chloro-10-methyl-1-(6-methyl-4-(trifluoromethyl)pyridin-2-yl)-2,11-dioxo-1,2,3,3a,4,10,11,11a-octahydro-5H-benzo[b]pyrrolo[2,3-f][1,4]diazocin-5-yl)ethyl)pyrrolidine-3-carbonitrile] registered a Ki of 2.92 nM.

Take `Cc1cc(C(F)(F)F)cc(N2C(=O)C[C@@H]3CN(CCN4C[C@H]5C[C@@H]4CN5)c4c(C)cccc4N(C)C(=O)[C@H]32)n1` [Example 58, (3aR,11aS)-5-(2-((1R,4R)-2,5-Diazabicyclo[2.2.1]heptan-2-yl)ethyl)-6,10-dimethyl-1-(6-methyl-4-(trifluoromethyl)pyridin-2-yl)-1,3a,4,5,10,11a-hexahydro-2H-benzo[b]pyrrolo[2,3-f][1,4]diazocine-2,11(3H)-dione dihydrochloride]: the Ki came out at 0.777 nM. Under `Cc1cc(C(F)(F)F)cc(N2C(=O)C[C@@H]3CN(CCN4CCN(C)C[C@@H]4CO)c4c(C)cccc4N(C)C(=O)[C@H]32)n1` [Example 65, (3aR,11aS)-5-(2-((R)-2-(Hydroxymethyl)-4-methylpiperazin-1-yl)ethyl)-6,10-dimethyl-1-(6-methyl-4-(trifluoromethyl)pyridin-2-yl)-1,3a,4,5,10,11a-hexahydro-2H-benzo[b]pyrrolo[2,3-f][1,4]diazocine-2,11(3H)-dione dihydrochloride] stands 1.38 nM. In the case of `Cc1cc(C(F)(F)F)cc(N2C(=O)C[C@@H]3CN(CCN4CCS(=O)(=O)CC4)c4c(Cl)cccc4N(C)C(=O)[C@H]32)n1` [Example 37, (3aR,11aS)-6-Chloro-5-(2-(1,1-dioxidothiomorpholino)ethyl)-10-methyl-1-(6-methyl-4-(trifluoromethyl)pyridin-2-yl)-1,3a,4,5,10,11a-hexahydro-2H-benzo[b]pyrrolo[2,3-f][1,4]diazocine-2,11(3H)-dione], the Ki is 1.74 nM.

The molecule `Cc1cc(C(F)(F)F)cc(N2C(=O)C[C@@H]3CN(C[C@H]4CCN(C)[C@H](C)C4)c4c(Cl)cccc4N(C)C(=O)[C@H]32)n1` (single isomer, unassigned) [Example 126c] registered a Ki of 0.882 nM. Regarding `Cc1cc(C(F)(F)F)cc(N2C(=O)C[C@@H]3CN(CCN4CCNCC4)c4c(C)cccc4NC(=O)[C@H]32)n1` [Example 148, (3aR,11aS)-6-Methyl-1-(6-methyl-4-(trifluoromethyl)pyridin-2-yl)-5-(2-(piperazin-1-yl)ethyl)-1,3a,4,5,10,11a-hexahydro-2H-benzo[b]pyrrolo[2,3-f][1,4]diazocine-2,11(3H)-dione], the Ki is 3.04 nM. In turn, `Cc1cc(C(F)(F)F)cc(N2C(=O)C[C@@H]3CN(C[C@H]4COCCN4)c4c(C)cccc4N(C)C(=O)[C@H]32)n1` (racemic) [Example 112b, (3aR,11aS)-6,10-Dimethyl-1-(6-methyl-4-(trifluoromethyl)pyridin-2-yl)-5-(((S/R)-morpholin-3-yl)methyl)-1,3a,4,5,10,11a-hexahydro-2H-benzo[b]pyrrolo[2,3-f][1,4]diazocine-2,11(3H)-dione] gave a Ki of 1.81 nM.

Molecule `Cc1cc(C(F)(F)F)cc(N2C(=O)C[C@@H]3CN(CCN4CCN(S(C)(=O)=O)CC4)c4c(Cl)cccc4N(C)C(=O)[C@H]32)n1` [Example 36, (3aR,11aS)-6-Chloro-10-methyl-1-(6-methyl-4-(trifluoromethyl)pyridin-2-yl)-5-(2-(4-(methylsulfonyl)piperazin-1-yl)ethyl)-1,3a,4,5,10,11a-hexahydro-2H-benzo[b]pyrrolo[2,3-f][1,4]diazocine-2,11(3H)-dione] showed a Ki of 1.25 nM. In turn, `Cc1cc(C(F)(F)F)cc(N2C(=O)C[C@@H]3CN(CC(O)CN4CCOCC4)c4c(Cl)cccc4N(C)C(=O)[C@H]32)n1` (single isomer, unassigned) [Example 133b] yielded a Ki of 2.46 nM. Molecule `Cc1cc(C(F)(F)F)cc(N2C(=O)C[C@@H]3CN(CC(C)O)c4c(F)cccc4N(C)C(=O)[C@H]32)n1` (mixture of isomers) [Example 130a, (3aR,11aS)-6-fluoro-5-((S/R)-2-hydroxypropyl)-10-methyl-1-(6-methyl-4-(trifluoromethyl)pyridin-2-yl)-1,3a,4,5,10,11a-hexahydro-2H-benzo[b]pyrrolo[2,3-f][1,4]diazocine-2,11(3H)-dione] displayed a Ki of 11.8 nM.

`Cc1cc(C(F)(F)F)cc(N2C(=O)C[C@@H]3CN(CCN4CCOCC4)c4c(Cl)cccc4N(C)C(=O)[C@H]32)n1` [Example 20, (3aR,11aS)-6-Chloro-10-methyl-1-(6-methyl-4-(trifluoromethyl)pyridin-2-yl)-5-(2-morpholinoethyl)-1,3a,4,5,10,11a-hexahydro-2H-benzo[b]pyrrolo[2,3-f][1,4]diazocine-2,11(3H)-dione] returned a Ki of 1.82 nM. Consider `Cc1cc(C(F)(F)F)cc(N2C(=O)C[C@@H]3CN(C[C@@H]4CCN(C)[C@@H](C)C4)c4c(Cl)cccc4N(C)C(=O)[C@H]32)n1` (single isomer, unassigned) [Example 126d], for which the affinity corresponds to a Ki of 1.48 nM. Under `Cc1cc(C(F)(F)F)cc(N2C(=O)C[C@@H]3CN(CC(C)O)c4c(Cl)cccc4N(C)C(=O)[C@H]32)n1` (mixture of isomers) [Example 131a, (3aR,11aS)-6-chloro-5-((S/R)-2-hydroxypropyl)-10-methyl-1-(6-methyl-4-(trifluoromethyl)pyridin-2-yl)-1,3a,4,5,10,11a-hexahydro-2H-benzo[b]pyrrolo[2,3-f][1,4]diazocine-2,11(3H)-dione] stands 1.99 nM; under `Cc1cc(C(F)(F)F)cc(N2C(=O)C[C@@H]3CN(CCN4CCNCC4)c4c(Cl)cccc4N(C)C(=O)[C@H]32)n1` [Example 19, (3aR,11aS)-6-Chloro-10-methyl-1-(6-methyl-4-(trifluoromethyl)pyridin-2-yl)-5-(2-(piperazin-1-yl)ethyl)-1,3a,4,5,10,11a-hexahydro-2H-benzo[b]pyrrolo[2,3-f][1,4]diazocine-2,11(3H)-dione], 1.87 nM; under `Cc1cc(C(F)(F)F)cc(N2C(=O)C[C@@H]3CN(C[C@@H]4CNCCO4)c4c(Cl)cccc4N(C)C(=O)[C@H]32)n1` (racemic) [Example 109b, (3aR,11aS)-6-Chloro-10-methyl-1-(6-methyl-4-(trifluoromethyl)pyridin-2-yl)-5-(((S/R)-morpholin-2-yl)methyl)-1,3a,4,5,10,11a-hexahydro-2H-benzo[b]pyrrolo[2,3-f][1,4]diazocine-2,11(3H)-dione], 2.02 nM. For the molecule `Cc1cc(C(F)(F)F)cc(N2C(=O)C[C@@H]3CN(Cc4ccncc4)c4c(C)cccc4N(C)C(=O)[C@H]32)n1` [Example 114, (3aR,11aS)-6,10-Dimethyl-1-(6-methyl-4-(trifluoromethyl)pyridin-2-yl)-5-(pyridin-4-ylmethyl)-1,3a,4,5,10,11a-hexahydro-2H-benzo[b]pyrrolo[2,3-f][1,4]diazocine-2,11(3H)-dione], affinity was put at a Ki of 1.64 nM.

A word on the Ki: it is the equilibrium dissociation constant of an inhibitor or competing ligand from its target.
